Entries after “also recorded” stand apart in the source; their conditions may differ.
Experiments:
UUO kidney [1] = assay: Dynamic MRI measurement of the enhancement in the kidney, UUO mice (Example 3); type: in vivo; details: DOTAREM 10 mM, Example 1 nanoparticles 5 mM
Experimental: The images were acquired with a 7T 300 MHz spectrometer imager, equipped with a linear 1H radiofrequency coil dedicated to mice (Bruker, Karlsruhe, Germany).
The dynamic MRI studies of capture and release of the nanoparticles in the tissues were carried out in vivo and made it possible to determine the change in enhancement in the kidney.
All the manipulations of the animals were carried out in compliance with the institutional animal protocol guidelines in place at Paris Descartes University, submission CEEA34.JS.142.1 and approved by the Institute's animal research committee, and also the ethics protocols of the company regarding mouse inductions. […]
8-week-old female mice of BalbC/JRJ type (n=6) were UUO-treated at just one kidney, i.e. each mouse comprises one lesioned kidney (UUO kidney) and one healthy kidney (reference kidney). […] The physiological respiratory parameters were measured throughout the MRI studies using a nonmagnetic respiratory sensor system (the company SAM, US) and the body temperature was maintained by heating the cradle to the core. […]
A dynamic contrast enhanced DCE sequence was recorded using a specific sequence eliminating the free artefacts of movement in post treatment with a TR of 100 ms and a TE of 4 ms and a tilt angle of 80° in order to ensure T1 MRI weighting; a field of view (FOV) of 3 cm×3 cm and a final matrix of 256 by 256 points. […]

[2] = test system: glomerular and tubular renal disorder model induced by injection of anti-gbm antibodies; assay: Arterial input function (AIF) by DCE MRI in anti-gbm glomerular and tubular renal disorder model with therapy (Example 6); type: in vivo, male CBA mice; details: d7 and d14 post-induction, AGuIX 5 mM, DOTAREM 10 mM, 100 μl bolus
Experimental: The high temporal resolution DCE perfusion method with a period 2.5 s for 10 min, with injection of the imaging agent as a 100 μl bolus at […] (method described in Example 4) was applied on another model of glomerular and tubular renal disorder, i.e. model induced by injection of anti-gbm antibodies in the literature.
The DCE MRI acquisition protocol consists in injecting the two types of agents: reference DOTAREM or AGuIX, namely:
solution according to the invention: 100 μl of imaging agent dissolved in a 0.9% saline solution, with a 5 mM concentration of AguIX imaging agent, and
solution according to the prior art: 100 μl of imaging agent dissolved in a 0.9% saline solution, with a 10 mM concentration of DOTAREM imaging agent. […]
An additional parameter corresponding to the arrival of the imaging tracer in the organ, i.e. arterial input function AIF, was also recorded. Measured at the input of the organ studied, the AIF itself at the input of the kidney is an indicator of the functionality. The profile is recorded on the anatomical MRI image at the level of the renal arterial point on the dynamic images acquired at DCE high temporal resolution proposed. […]

UUO kidney [3] = assay: High temporal resolution DCE perfusion MRI, UUO model (Example 4); type: in vivo, female BalbC/JRJ mice; details: DOTAREM 10 mM
Experimental: It provides kinetic profiles of signal enhancement corresponding to the immediate arrival of the imaging agent in the tissue, in particular for probing the first glomerular pass.
The UUO model is induced by clamping the right ureter of female BalbC/JRJ mice according to a biochemically characterized protocol from the literature. All the manipulations of the animals were carried out in compliance with the institutional animal protocol guidelines described in Example 3.
8-week-old female mice of BalbC/JRJ type (n=6) were UUO-treated at the level of just one kidney, i.e. each mouse comprises one lesioned kidney (UUO kidney) and one healthy kidney (reference kidney). A batch of sham mice makes it possible to verify the validity of the contralateral reference with the MRI method developed. 2 batches of n=6 mice and n=6 shams were studied by dynamic MRI 3 days after induction.
The DCE MRI acquisition protocol consists in injecting the two types of imaging agents: reference DOTAREM and AGuIX, namely:
Solution according to the invention: 100 μl of imaging agent dissolved in a 0.9% saline solution, with a 5 mM concentration of AGuIX imaging agent.
Prior art solution: 100 μl of imaging agent dissolved in a 0.9% saline solution with 10 mM concentration of DOTAREM imaging agent. • i) The administration protocol is that of Example 3. • ii) The MRI acquisition protocol itself consists in recording sequential images by means of the T1-weighted FLASH MRI sequence (TR=TE=2.2 ms, spatial resolution 117×310 μm^2), temporal resolution 2.5 s for 10 min with 20 s of precontrast. […] T1 mapping in order to verify the concentration of Gd MRI agent is recorded. • iii) The digital processing method derived from method termed 3TP, three time Points, consists in defining 3 main points: basic reference intensity, point of maximum intensity of enhancement, final clearance time, and calculating the slopes of capture and of release of the agent. Next, a Mann-Whitney biostatistical study is applied to the slope parameters calculated for each of the 6 mice, and for each imaging agent.
Averaged collective method resulting in the value of T1max: • a) Searching for the time T corresponding to the maximum in the overall mean of the DCE MRI intensities. • b) Applying this max to each enhancement profile as Tmax. • c) Taking the mean of 6 enhancement values around the indexed value.

Question: What does the source list for CNC[C@H](O)[C@@H](O)[C@H](O)[C@H](O)CO.O=C([O-])CN1CCN(CC(=O)[O-])CCN(CC(=O)O)CCN(CC(=O)[O-])CC1.[Gd+3] [DOTAREM]?
Answer: discrimination between healthy kidney and lesioned (UUO) kidney by MRI enhancement (UUO kidney [1]; intravenous, 100 μl, UUO mice): cannot discriminate between a healthy kidney and a lesioned kidney; also recorded: does not make it possible to significantly differentiate renal functionality of a healthy kidney and of an obstructed kidney; also recorded: does not make it possible to distinguish a healthy kidney from a kidney suffering from a renal disorder; enhancement profile in the renal cortex, UUO kidney vs reference kidney (UUO kidney [1]; time course by MRI after intravenous administration): enhancement profile is similar between UUO kidney (lesioned kidney) and reference kidney (healthy kidney); AIF at the kidney input, control (carrier) mice vs MP mice [2]: identical; decrease of DCE MRI signal between healthy and pathological kidney condition (UUO kidney [3]; UUO model, AGuIX 5 mM): 100%; decrease of DCE MRI signal between healthy and pathological kidney condition, as factor (UUO kidney [3]; UUO model, AGuIX 5 mM): 2; discrimination between healthy kidney and lesioned kidney (high time resolution DCE MRI) (UUO kidney [3]; intravenous, Example 1 nanoparticles 5 mM): cannot discriminate between a healthy kidney and a lesioned kidney; enhancement profile in the renal cortex, UUO kidney vs reference kidney (high time resolution DCE MRI, Mann-Whitney improved 3TP) (UUO kidney [3]; intravenous, Example 1 nanoparticles 5 mM, 3 days after induction): enhancement profile is similar between UUO kidney (lesioned kidney) and reference kidney (healthy kidney)
